This note sets out measurements from ChEMBL document CHEMBL5725517, “Azapeptides as CD36 binding compounds” (2017).

A word on the EC50: it is the concentration giving half of the maximal effect. Lower therefore signals an effect from little substance.

Starred links: 1 amine or outer side, 2 acyl side, 3 side chain; linkers in the order of their positions; H or OH if unused. Non-standard residues stand in square brackets, D forms with d. Residues, ends and D or L forms follow the SMILES beside them. X4 = O=C(N(Cc1ccc(-c2ccccc2)cc1)N[*:1])[*:2]; azaTyr = O=C(N(Cc1ccc(O)cc1)N[*:1])[*:2]; X3 = O=C(N(Cc1cccc2ccccc12)N[*:1])[*:2]; azaPhe = O=C(N(Cc1ccccc1)N[*:1])[*:2]; X2 = O=C(N(CCc1ccccc1)N[*:1])[*:2]; azaLeu = CC(C)CN(N[*:1])C(=O)[*:2]; X1 = O=C(N(CC1CCCCC1)N[*:1])[*:2]

The assay can be described thus: HS-R1a radioreceptor assay: GHS-R1a radioreceptor assay using LLCPK-1 membranes overexpressing GSH-R1a and radioiodinated (1-28) rat ghrelin as tracer.

`C[C@H](NC(=O)[C@@H](Cc1c[nH]c2ccccc12)NC(=O)[C@@H](N)Cc1cnc[nH]1)C(=O)NN(Cc1cccc2ccccc12)C(=O)N[C@H](Cc1ccccc1)C(=O)N[C@@H](CCCCN)C(N)=O` (H-H[dW]A[X3][dF]K-NH2) showed a 50% effective concentration (EC50) of 0.723 µM.

Take `C[C@H](NC(=O)N(CC1CCCCC1)NC(=O)[C@@H](N)Cc1cnc[nH]1)C(=O)N[C@@H](Cc1c[nH]c2ccccc12)C(=O)N[C@H](Cc1ccccc1)C(=O)N[C@@H](CCCCN)C(N)=O` (H-H[X1]AW[dF]K-NH2): the 50% effective concentration (EC50) was found to be 5.49 µM.

For the compound `C[C@H](NC(=O)[C@@H](Cc1c[nH]c2ccccc12)NC(=O)[C@@H](N)Cc1cnc[nH]1)C(=O)NN(Cc1ccc(O)cc1)C(=O)N[C@H](Cc1ccccc1)C(=O)N[C@@H](CCCCN)C(N)=O` (H-H[dW]A[azaTyr][dF]K-NH2), the half-maximal effective concentration (EC50) came out at 15.7 µM.

As to `C[C@H](NC(=O)[C@@H](Cc1c[nH]c2ccccc12)NC(=O)[C@@H](N)Cc1cnc[nH]1)C(=O)NN(CCc1ccccc1)C(=O)N[C@H](Cc1ccccc1)C(=O)N[C@@H](CCCCN)C(N)=O` (H-H[dW]A[X2][dF]K-NH2), the EC50 worked out at 3.74 µM.

As to `C[C@H](NC(=O)[C@@H](Cc1c[nH]c2ccccc12)NC(=O)[C@@H](N)Cc1cnc[nH]1)C(=O)NN(Cc1ccc(-c2ccccc2)cc1)C(=O)N[C@H](Cc1ccccc1)C(=O)N[C@@H](CCCCN)C(N)=O` (H-H[dW]A[X4][dF]K-NH2), the response was half-maximal at 1.34 µM (EC50).

`C[C@H](NC(=O)[C@@H](Cc1c[nH]c2ccccc12)NC(=O)[C@@H](N)Cc1cnc[nH]1)C(=O)NN(CC1CCCCC1)C(=O)N[C@H](Cc1ccccc1)C(=O)N[C@@H](CCCCN)C(N)=O` (H-H[dW]A[X1][dF]K-NH2) gave an EC50 of 4.28 µM.

Take `C[C@H](NC(=O)[C@@H](Cc1c[nH]c2ccccc12)NC(=O)[C@@H](N)Cc1cnc[nH]1)C(=O)N[C@@H](Cc1ccc(O)cc1)C(=O)N[C@H](Cc1ccccc1)C(=O)N[C@@H](CCCCN)C(N)=O` (H-H[dW]AY[dF]K-NH2): the EC50 worked out at 0.771 µM.

Consider `CC(C)CN(NC(=O)[C@H](C)NC(=O)[C@@H](Cc1c[nH]c2ccccc12)NC(=O)[C@@H](N)Cc1cnc[nH]1)C(=O)N[C@H](Cc1ccccc1)C(=O)N[C@@H](CCCCN)C(N)=O` (H-H[dW]A[azaLeu][dF]K-NH2), for which the concentration giving a half-maximal response (EC50) was found to be 19.5 µM.

`C[C@H](NC(=O)[C@@H](Cc1c[nH]c2ccccc12)NC(=O)[C@@H](N)Cc1cnc[nH]1)C(=O)N[C@H](Cc1ccc(O)cc1)C(=O)N[C@H](Cc1ccccc1)C(=O)N[C@@H](CCCCN)C(N)=O` (H-H[dW]A[dY][dF]K-NH2) gave a concentration giving a half-maximal response (EC50) of 3.25 µM.

With `CC(C)CN(NC(=O)[C@@H](Cc1c[nH]c2ccccc12)NC(=O)[C@@H](N)Cc1cnc[nH]1)C(=O)N[C@@H](Cc1c[nH]c2ccccc12)C(=O)N[C@H](Cc1ccccc1)C(=O)N[C@@H](CCCCN)C(N)=O` (H-H[dW][azaLeu]W[dF]K-NH2), the EC50 was found to be 1.2 µM.

As for `C[C@H](NC(=O)[C@@H](Cc1c[nH]c2ccccc12)NC(=O)[C@@H](N)Cc1cnc[nH]1)C(=O)NN(Cc1ccccc1)C(=O)N[C@H](Cc1ccccc1)C(=O)N[C@@H](CCCCN)C(N)=O` (H-H[dW]A[azaPhe][dF]K-NH2), the midpoint of the response, the EC50, lay at 2.77 µM.

Take `C[C@H](NC(=O)N(Cc1ccccc1)NC(=O)[C@@H](N)Cc1cnc[nH]1)C(=O)N[C@@H](Cc1c[nH]c2ccccc12)C(=O)N[C@H](Cc1ccccc1)C(=O)N[C@@H](CCCCN)C(N)=O` (H-H[azaPhe]AW[dF]K-NH2): the 50% effective concentration (EC50) came out at 16.1 µM.
